Data as given in US6730792B2, “β3 adrenergic agonists” (Eli Lilly and Company, priority 2000, dated 2004).

Each molecule was assayed against T1, human β3 adrenergic receptor (Homo sapiens, UniProt P13945) (assay: whole cell receptor coupled c-AMP assay, human β3 receptor in CHO cells (EC50, Emax relative to isoproterenol)). Conditions: % intrinsic activity relative to isoproterenol maximal response; average of at least 3 runs; c-AMP in transfected CHO cells.
T1 construct: expressed in transfected cells; host or cells: DXB-11 Chinese hamster ovary (CHO) cell line, stably transfected (phd expression vector)
T1 sequence (P13945 whole entry): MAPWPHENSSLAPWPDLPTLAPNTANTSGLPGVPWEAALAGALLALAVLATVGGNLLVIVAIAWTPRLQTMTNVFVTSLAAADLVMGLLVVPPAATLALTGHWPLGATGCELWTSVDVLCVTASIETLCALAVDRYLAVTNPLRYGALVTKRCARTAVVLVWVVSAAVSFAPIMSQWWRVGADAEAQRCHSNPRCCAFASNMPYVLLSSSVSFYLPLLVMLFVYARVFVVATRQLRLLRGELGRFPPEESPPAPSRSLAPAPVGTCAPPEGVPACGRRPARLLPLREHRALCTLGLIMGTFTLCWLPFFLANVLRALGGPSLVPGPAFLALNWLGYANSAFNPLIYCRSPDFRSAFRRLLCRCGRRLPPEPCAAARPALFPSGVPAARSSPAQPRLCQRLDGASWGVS
Format: cell-based
From the text: The genes encoding the human β1-adrenergic receptor (Frielle et al., Proc. Natl. Acad. Sci., 84:7920-7924, 1987), the human β2-adrenergic receptor (Kobika et al., Proc. Natl. Acad. Sci., 84:46-50, 1987, Emorine et al., Proc. Natl. Acad. Sci., 84:6995-6999, 1987) and the human β3 adrenergic receptor (Granneman et al., Molecular Pharmacology, 44(2):264-70, 1993) are individually subcloned into a phd expression vector (Grinnell et al., Bio/Technology, 5:1189-1192, 1987) and transfected into the DXB-11 Chinese hamster ovary (CHO) cell line by calcium phosphate precipitation methodology. The stably transfected cells are grown to 95% confluency in 95% Dulbecco's modified Eagles Medium (DMEM), 5% fetal bovine serum and 0.01% proline. Media is removed and the cells are washed with phosphate buffered (pH 7.4) saline (without magnesium and calcium). Cells are then lifted using an enzyme free cell dissociation solution (Specialty Media, Lavallette, N.J.) and pelleted by centrifugation.
Cells from each of the above cell lines are resuspended and added (20,000/well) to a 96-well plate. Cells are incubated at 37° C. with representative compounds of the invention for 20 minutes in buffer (Hank's balanced salt solution, 10 mM HEPES, 0.1% BSA, 1 mM L-ascorbic acid, 0.2% dimethyl sulfoxide, 1 mm 3-isobutyl-1-methylxanthine, pH 7.4). After halting the incubation with quench buffer (50 mM Na Acetate, 0.25% Triton X-100, pH 5.8), the c-AMP level is quantified by scintillation proximity assay (SPA) using a modification of the commercially available c-AMP kit (Amersham, Arlington Heights, Ill.) with rabbit anti-cAMP antibody (ICN Biomedicals, Aurora, Ohio) for the kit.
Sigmoidal dose response curves, from the whole cell receptor coupled c-AMP assay are fit to a four parameter logistic equation using non linear regression: y=(a−d)/(1+(Dose/c)^b)+d where a and d are responses at zero and maximal dose, b is the slope factor and c is the EC50 as previously described (DeLean et al., Am. J. Physiol., 235, E97-E102, 1978). EC50 is assessed as the concentration producing 50% of the maximum response to each agonist.
Isoproterenol is accepted in the art as a non-selective β3 agonist and is widely used as a comparator in evaluating the activity of compounds. See Trends in Pharm. Sci., 15:3, 1994. The % intrinsic activity (Emax) of representative compounds of the invention is assessed relative to isoproterenol by the compound's maximal response divided by the isoproterenol maximal response times 100.

SMILES	Emax (%) ± SEM
CC(=O)c1ccc(-c2ccccc2OC[C@@H](O)CNC(C)(C)Cc2ccc(Oc3cccnc3C#N)cc2)s1.Cl [Example 424]	71.2 ± 7.9%
CC(C)(Cc1ccc(Oc2ccc(C#N)cn2)cc1)NC[C@H](O)COc1ccccc1-c1ccncc1 [Example 373]	29.0 ± 6.8%
Cc1ccc(-c2cccc(F)c2OC[C@@H](O)CNC(C)(C)Cc2ccc(Oc3ncccc3C#N)cc2)s1.Cl [Example 437]	72.0 ± 10.5%
CC(=O)c1ccc(-c2ccccc2OC[C@@H](O)CNC(C)(C)Cc2ccc(Oc3ccc(C#N)cn3)cc2)s1.Cl [Example 407]	79.7 ± 7.6%
CC(C)(Cc1ccc(Oc2cccnc2C#N)cc1)NC[C@H](O)COc1ccccc1-c1ccsc1.Cl [Example 421]	53.4 ± 6.9%
CC(C)(Cc1ccc(Oc2cccnc2C#N)cc1)NC[C@H](O)COc1ccccc1-c1ccco1.Cl [Example 425]	67.1 ± 3.0%
CC(C)(Cc1ccc(Oc2ncccc2C(N)=O)cc1)NC[C@H](O)COc1ccccc1-c1ccsc1.O=C(O)C(F)(F)F [Example 381]	58.5 ± 6.9%
Cc1ccc(-c2ccccc2OC[C@@H](O)CNC(C)(C)Cc2ccc(Oc3ccc(C#N)cn3)cc2)s1.Cl [Example 405]	64.4 ± 7.1%
CC(C)(Cc1ccc(Oc2ccc(C#N)cn2)cc1)NC[C@H](O)COc1ccccc1-c1ccco1.Cl [Example 408]	74.0 ± 6.5%
CC(C)(Cc1ccc(Oc2ncccc2C#N)cc1)NC[C@H](O)COc1c(F)cccc1-c1ccc(Cl)s1.Cl [Example 438]	64.3 ± 12.4%
Cc1ccc(-c2cccc(F)c2OC[C@@H](O)CNC(C)(C)Cc2ccc(Oc3ccc(C#N)cn3)cc2)s1.Cl [Example 427]	72.4 ± 6.9%
CC(C)(Cc1ccc(Oc2ccc(S(C)(=O)=O)cc2)cc1)NC[C@H](O)COc1ccccc1-c1ccncc1.Cl.Cl [Example 377]	33.0 ± 4.2%

Same assay, conditions: Emax ± SEM; average of at least 3 runs except as otherwise indicated; tested as the isolated form listed

SMILES	Emax (%) ± SEM
CC(C)(Cc1ccc(Oc2ccc(C#N)o2)cc1)NC[C@H](O)COc1ccccc1-c1nccs1.O=C(O)C(F)(F)F [Example 330]	55.9 ± 2.8%
CC(C)(Cc1ccc(Oc2ccc(C(N)=O)s2)cc1)NC[C@H](O)COc1ccccc1-c1nccs1.O=C(O)C(F)(F)F [Example 329]	60.2 ± 3.0%
CC(C)(Cc1ccc(Oc2ncccc2C(N)=O)cc1)NC[C@H](O)COc1ccccc1-c1ncco1.Cl [Example 308]	71.2 ± 5.8%

Same assay, conditions: Emax ± standard error of the mean; average of at least 3 runs except where n = 1; compound tested in the isolated form listed

SMILES	Emax (%) ± SEM
CC(C)(Cc1ccc(Oc2nc(Cl)c(Cl)cc2Cl)cc1)NC[C@H](O)COc1ccccc1-c1ccno1.O=C(O)C(F)(F)F [Example 158]	73.0 ± 3.0%
CC(C)(Cc1ccc(Oc2ccc(C(N)=O)cn2)cc1)NC[C@H](O)COc1cccc(C2=NCCN2)c1 [Example 59]	<10%
CC(C)(Cc1ccc(Oc2ccc(S(C)(=O)=O)cc2)cc1)NC[C@H](O)COc1ccccc1-c1ccno1.O=C(O)C(F)(F)F [Example 135]	35.2 ± 4.3%
CC(C)(Cc1ccc(Oc2ncccc2C(N)=O)cc1)NC[C@H](O)COc1ccccc1N1CCCC1 [Example 84]	72.1 ± 6.2%
CC(C)(Cc1ccc(Oc2ncccc2C(N)=O)cc1)NC[C@H](O)COc1ccccc1-n1ccnc1.Cl [Example 104]	36.0 ± 5.0%
CC(C)(Cc1ccc(Oc2ncc(C(F)(F)F)cc2Cl)cc1)NC[C@H](O)COc1ccccc1-c1cscn1.Cl [Example 254]	50.5 ± 0.8%
CC(C)(Cc1ccc(Oc2cccnc2C#N)cc1)NC[C@H](O)COc1ccccc1-c1cscn1.Cl [Example 241]	47.0 ± 2.5%
CC(C)(Cc1ccc(Oc2ccc(C#N)cc2Cl)cc1)NC[C@H](O)COc1ccccc1-c1ccno1.O=C(O)C(F)(F)F [Example 163]	44.6 ± 4.3%
CC(C)(Cc1ccc(Oc2ccc(C(N)=O)cn2)cc1)NC[C@H](O)COc1ccccc1-c1ccn[nH]1 [Example 19]	31.3 n = 1%
CC(C)(Cc1ccc(Oc2ccc(C(N)=O)cn2)cc1)NC[C@H](O)COc1ccccc1C1=CC(=O)OC1.Cl [Example 41]	33.5 ± 4.2%
CC(C)(Cc1ccc(Oc2ccc(C(F)(F)F)cc2Cl)cc1)NC[C@H](O)COc1ccccc1-c1cccs1.O=C(O)C(F)(F)F [Example 170]	55.0 ± 4.8%
CC(C)(Cc1ccc(Oc2ccc(C(N)=O)cn2)cc1)NC[C@H](O)COc1ccccc1-c1cnco1.Cl [Example 46]	64.7 ± 1.3%
Cn1ccc(-c2ccccc2OC[C@@H](O)CNC(C)(C)Cc2ccc(Oc3ncccc3C#N)cc2)n1 [Example 4]	55.0 ± 1.3%
COC(=O)c1ccc(Oc2ccc(CC(C)(C)NC[C@H](O)COc3ccccc3-c3ccnn3C)cc2)c(Cl)c1 [Example 137]	<10%
CC(C)(Cc1ccc(Oc2ccc(S(C)(=O)=O)cc2)cc1)NC[C@H](O)COc1ccccc1-c1cccs1.O=C(O)C(F)(F)F [Example 129]	53.2 ± 4.8%
CC(C)(Cc1ccc(Oc2ccc(S(N)(=O)=O)cc2F)cc1)NC[C@H](O)COc1ccccc1-c1nccs1.O=C(O)C(F)(F)F [Example 226]	37.8 ± 9.2%
CC(C)(Cc1ccc(Oc2ccc(C(N)=O)cn2)cc1)NC[C@H](O)COc1ccccc1-n1ccc(C#N)c1.Cl [Example 272]	35.7 ± 2.8%
CC(C)(Cc1ccc(Oc2ccc(C#N)cn2)cc1)NC[C@H](O)COc1ccccc1-c1ccncn1 [Example 10]	35.1 ± 0.9%

SMILES	Emax (%) ± SEM
CC(C)(Cc1ccc(Oc2ncccc2C(N)=O)cc1)NC[C@H](O)COc1ccccc1-n1ccc(C=O)c1 [Example 273]	40.3 ± 0.5%
CC(C)(Cc1ccc(Oc2ccc(C(N)=O)nc2)cc1)NC[C@H](O)COc1ccccc1-n1cccc1.Cl [Example 266]	36.7 ± 6.8%
CC(C)(Cc1ccc(Oc2ccc(C(N)=O)cn2)cc1)NC[C@H](O)COc1ccccc1N1CCCCC1.Cl.Cl [Example 24]	17.3 ± 3.2%
CC(C)(Cc1ccc(Oc2ncccc2C(N)=O)cc1)NC[C@H](O)COc1ccccc1-c1ccn[nH]1 [Example 74]	36.8 n = 1%
CC(C)(Cc1ccc(Oc2ccc(C#N)cc2Cl)cc1)NC[C@H](O)COc1ccccc1-c1cccs1.O=C(O)C(F)(F)F [Example 161]	52.5 ± 4.7%
CC(C)(Cc1ccc(Oc2ncccc2C(N)=O)cc1)NC[C@H](O)COc1ccccc1-n1cccn1.Cl [Example 102]	46.1 ± 4.5%
CC(C)(Cc1ccc(Oc2ccc(C(F)(F)F)cn2)cc1)NC[C@H](O)COc1ccccc1-c1cccs1.O=C(O)C(F)(F)F [Example 193]	73.5 ± 3.2%
CC(C)(Cc1ccc(Oc2ccncc2)cc1)NC[C@H](O)COc1ccccc1-c1ccno1.O=C(O)C(F)(F)F [Example 287]	39.9 ± 4.9%
CC(C)(Cc1ccc(Oc2ccc(S(C)(=O)=O)cc2)cc1)NC[C@H](O)COc1cc(F)ccc1C1=CC(=O)OC1.Cl [Example 136]	<10%
CC(C)(Cc1ccc(Oc2cnccn2)cc1)NC[C@H](O)COc1ccccc1-c1cscn1.Cl [Example 256]	50.6 ± 1.8%
CC(C)(Cc1ccc(Oc2ccc(C#N)cn2)cc1)NC[C@H](O)COc1ccccc1-c1cnco1.Cl [Example 13]	54.8 ± 1.7%
CC(C)(Cc1ccc(Oc2cccc(Cl)c2C#N)cc1)NC[C@H](O)COc1ccccc1-c1cscn1.Cl [Example 245]	56.1 ± 2.9%
CC(C)(Cc1ccc(Oc2cccc(Cl)n2)cc1)NC[C@H](O)COc1ccccc1-c1ccno1.O=C(O)C(F)(F)F [Example 177]	46.0 ± 1.7%
CC(C)(Cc1ccc(Oc2ccc(C(F)(F)F)cn2)cc1)NC[C@H](O)COc1ccccc1-c1nccs1.O=C(O)C(F)(F)F [Example 194]	56.6 ± 4.2%
CC(C)(Cc1ccc(Oc2ncccc2C(N)=O)cc1)NC[C@H](O)COc1ccccc1-c1ccns1.O=C(O)C(=O)O [Example 96]	78.1 ± 6.6%
CC(C)(Cc1ccc(Oc2ccc(S(C)(=O)=O)cc2Cl)cc1)NC[C@H](O)COc1ccccc1-c1ccno1.O=C(O)C(F)(F)F [Example 183]	53.7 ± 4.3%
CC(C)(Cc1ccc(Oc2ccc(C#N)cc2)cc1)NC[C@H](O)COc1ccccc1-c1cccs1.O=C(O)C(F)(F)F [Example 119]	55.2 ± 3.6%
